In this test the test system is GADD45, CEBPb and MMP13 expression in differentiating canine MSCs. The experiment in a line: Expression of hypertrophic chondrocyte markers (relative RNA levels) during chondrogenic differentiation. The format is cell-based. To be noted: relative RNA levels at days 10 and 24 of chondrogenic differentiation. Here is the method: 1B depicts the experiment in which we added 30 ng/ml kynurenine to the differentiating MSCs to examine its effect on the markers of hypertrophic chondrocytes. In the experiment, we measured the expression of the two main regulatory transcription factors of hypertrophic chondrocyte differentiation, factors GADD45 and CEBPb, and of their target, matrix metalloproteinase-13 (MMP13), by measuring their relative RNA levels on days 10 (early) and 24 (mature) of chondrogenic differentiation.
2B depicts the experiment in which we added 50 ng/ml THBS1 to the differentiating MSCs to examine its effect on the markers of hypertrophic chondrocytes. In the experiment, we measured the expression of the two main regulatory transcription factors of hypertrophic chondrocyte differentiation, factors GADD45 and CEBPb, and of their target, matrix metalloproteinase-13 (MMP13), by measuring their relative RNA levels on days 10 (early) and 24 (mature) of chondrogenic differentiation.
During the analysis, first we quantified the levels of KYNA produced in canine AD-MSCs derived from 8 independent donations by ELISA in passage 3 cultures. […]
In another analysis, we quantified the levels of THBS1 produced in the AD-MSCs derived from 8 independent donations by ELISA in passage 3 cultures. […]

As for `Nc1ccccc1C(=O)CC(N)C(=O)O` (centres unmarked) [KYNA, kynurenine], the “Effect on hypertrophic chondrocyte phenotype (expression of GADD45, CEBPb and MMP13)” value (30 ng/ml KYNA added at day 7) is “able to suppress the hypertrophic chondrocyte phenotype”. As to “THBS1: Thrombospondin 1, adhesive glycoprotein encoded by the THBS1 gene, added to differentiating MSCs at 50 ng/ml”, the “Effect on hypertrophic chondrocyte phenotype (expression of GADD45, CEBPb and MMP13)” value (50 ng/ml THBS1 added at day 7) was “sufficient to suppress the hypertrophic chondrocyte phenotype”.

The values are drawn from patent US20240174980A1, “PROCESS FOR MANUFACTURE OF A COMPOSITION FOR THE TREATMENT OF OSTEOARTHRITIS IN A SUBJECT” (STEM CELLX EUROPE KFT, priority 2021, published 2024).
